The text below walks through data of patent US20110071173A1, “IMIDAZOQUINAZOLINE DERIVATIVES AS ANAGRELIDE ANALOGUES FOR THE TREATMENT OF MYELOPROLIFIC DISEASES AND THROMBOTIC DISEASES” (Shire LLC, priority 2008, published 2011).

Some results are limits rather than exact numbers.

For orientation: half-life means the time needed for the level to fall by half in the phase considered. In general, IC50 refers to the midpoint of a concentration-inhibition curve.

Data set [1] relates to human phosphodiesterase III (PDE III). The data set is described as follows: PDE III inhibition. Type of data set: biochemical. The conditions noted are these: versus anagrelide.
Data set [2] in a line: pharmacokinetics in vivo (half-life, exposure, first pass). More on the design: species or system human. The conditions noted are these: after anagrelide treatment.
Data set [3] deals with TPO-induced megakaryocytopoiesis. As to conditions: cited from earlier work.
For data set [4] the following is noted: cited from earlier work.
The target in data set [5] is human phosphodiesterase III (PDE III). As to conditions: cited from earlier work.
The subject of data set [6] is erythroid or myelomonocytic differentiation. The conditions noted are these: stimulated by erythropoietin or granulocyte-macrophage colony-stimulating factor; cited from earlier work.

Consider `O=C1NC2=Nc3ccc(Cl)c(Cl)c3CN2C1O` (stereo not drawn) [3-hydroxyanagrelide], for which the “potency as PDE III inhibitor relative to anagrelide” value in data set [1] was “over 40 fold”. Besides, in data set [2], the “exposure in vivo relative to parent drug” value is recorded as 2-3 fold. Moreover, the “potency in inhibition of megakaryocytopoiesis relative to parent drug” value in data set [3] (versus anagrelide) is listed as “no more potent than the parent drug”. The half-life in data set [4] (typical) was 2.5 h.

Turning to `O=C1CN2Cc3c(ccc(Cl)c3Cl)N=C2N1` [Anagrelide, 6,7-dichloro-1,5-dihydroimidazo[2,1-b]-quinazolin-2(3H)-one], the concentration for half-maximal inhibition (IC50) is approximately 26 nM in data set [3] (in vitro, human megakaryocytopoiesis, read-out: estimated IC50, inhibition of TPO-induced megakaryocytopoiesis) and approximately 29 nM in data set [5]. In addition, the “effect on erythroid or myelomonocytic differentiation” value in data set [6] is reported as “does not affect”. Besides, the first pass effect in data set [4] (in vivo) is more than 50%.

`Cc1[nH]c(=O)c(C#N)cc1-c1ccncc1` [milrinone]: the 50% inhibitory concentration (IC50) in data set [5] was 170 to 350 nM.
